Data on 9 molecules can be found in US8592425B2, “Imidazo[1,2-a]pyridines and imidazo[1,2-b]pyridazines as mark inhibitors” (Merck Sharp & Dohme Corp., priority 2009, dated 2013).

The structures appear in SMILES notation. Structures can show the parent of a compound that is named as a salt. Some results are limits rather than exact numbers.

Sequence of recombinant MARK3 enzyme (P27448 whole entry, species assumed): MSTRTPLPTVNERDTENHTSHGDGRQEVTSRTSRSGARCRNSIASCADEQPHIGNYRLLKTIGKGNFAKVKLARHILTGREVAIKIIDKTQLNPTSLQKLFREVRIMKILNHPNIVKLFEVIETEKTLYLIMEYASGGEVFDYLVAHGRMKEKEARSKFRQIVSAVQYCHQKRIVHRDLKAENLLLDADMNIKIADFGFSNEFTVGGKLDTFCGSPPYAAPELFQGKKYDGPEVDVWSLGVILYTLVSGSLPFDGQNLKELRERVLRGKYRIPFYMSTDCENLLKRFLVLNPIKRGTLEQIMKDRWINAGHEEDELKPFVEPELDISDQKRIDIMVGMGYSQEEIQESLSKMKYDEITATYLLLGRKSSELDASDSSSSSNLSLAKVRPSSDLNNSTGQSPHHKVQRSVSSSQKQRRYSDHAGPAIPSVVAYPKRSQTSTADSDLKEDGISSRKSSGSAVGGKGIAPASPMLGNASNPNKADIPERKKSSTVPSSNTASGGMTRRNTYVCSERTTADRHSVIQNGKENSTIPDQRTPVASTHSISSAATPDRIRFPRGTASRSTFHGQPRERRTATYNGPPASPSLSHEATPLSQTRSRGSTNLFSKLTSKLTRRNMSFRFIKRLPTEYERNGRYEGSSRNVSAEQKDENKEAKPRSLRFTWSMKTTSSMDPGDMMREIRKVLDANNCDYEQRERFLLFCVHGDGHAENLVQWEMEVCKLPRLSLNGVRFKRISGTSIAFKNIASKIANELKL

The subject of one assay is phosphorylation of Tau at S262 in primary cell culture of rat cortical neurons induced by Okadaic acid. The experiment in a line: pTau(S262) Cell Biochemical and Functional Assay. Type of assay: cell-based. To be noted: Cortical neurone, Okadaic acid 200 nM, 1.5 hrs, read-out: IC50, inhibition of phosphorylation of Tau at S262. The method, then:
The cell biochemical potency of the below described MARK inhibitors was evaluated by measuring their ability to block the phosphorylation of Tau at S262 in primary cell culture of rat cortical neurons induced by the action of Okadaic acid.
• 1. Store tissue at 4° C. (1-2 days) until ready to use. • 2. When ready to plate, make up 2 mL of enzymatic solution in Hibernate-Ca containing 1× papain. Filter sterile solution with 0.2 μm filter. • 3. Transfer 2 mL of medium from tissue tube into 15 mL falcon tube while not disturbing tissue. Save media. • 4. Add 2 mL enzymatic media (2) to tissue. Incubate for 30′ at 37° C. • 5. Remove enzymatic solution while not disturbing tissue. Add back 1 mL of media from (3). • 6. Using pipettor with sterile plastic tip, triturate ˜10 times until most of the cells are dispersed. • 7. Let undispersed pieces settle by gravity 1 minute. • 8. Transfer dispersed cells (supernatant) into 15 mL falcon tube containing 1 mL media from (3). Gently mix cells by swirling. • 9. Spin cells at 1,100 rpm for 1 minute. Remove supernatant. • 10. Flick tube to loosen cell pellet. Resuspend cells in 5 mL of NB. • 11. Transfer to new 50 mL falcon tube using 40 μm cell strainer. Rinse 15 mL falcon tube with 5 mL media, add to strainer. • 12. Count cells using hemacytometer. • 13. Dilute cells to 7,000 cells/100 μL/well in NB. • 14. Incubate cells at 37° C. with 5% CO2. • a. 4 DIV: Replace ½ volume (50 μL) NB per well. • b. 6 DIV: Neurite Assay. Tissue Culture/Compound Treatment
Primary rat cortical neurons plated @ 6Kcells/well in 384-well black/clear bottom Poly D-Lysine coated BD Falcon Biocoat plates. • Media: Neurobasal+1× B27+2 mM L-Glutamine (+10% FBS) at time of plating
Cells maintained at 37° C. and 5% CO2 for *6 days in culture, w/½ media change every 3-4 days.
Compound treatment: • Prepare first plate: 200× compound in 100% DMSO with subsequent 3 fold serial dilution • Prepare intermediate plate: 1:40 dilution of 200× compound in media (2.5% DMSO) • Add 5× compound to cell in media at 1:5 dilution (0.5% final DMSO) • Incubate for 30 min. at 37° C.
Okadaic Acid (OA) Treatment: • Dilute OA stock (240 μM in 100% DMSO) to 6× final concentration in media (0.5% DMSO) • Add 6× OA to cells at 1:6 dilution (200 nM final). Incubate for 1.5 hrs. at 37° C. Fix and Immunostaining
Fix: 1% PFA, diluted in PBS • Wash 1× with PBS, residual 30 μl/well.
Add 30 μL/well warmed 2% PFA and incubate 30 min. at RT (1% PFA final)
Wash 3× with PBS, 300/well residual […]
As for `Cc1sc(C(=O)N[C@H]2CCS(=O)(=O)C[C@H]2N)cc1-c1cnc2cccnn12` (relative stereo) [Example 10, N-[cis-3-amino-1,1-dioxidotetrahydro-2H-thiopyran-4-yl]-4-(imidazo[1,2-b]pyridazin-3-yl)-5-methylthiophene-2-carboxamide], the 50% inhibitory concentration (IC50) was more than 10000 nM.

Consider `Cc1sc(C(=O)NC2CS(=O)(=O)CC[C@H]2N)cc1-c1cnc2cccnn12` (stereo partly drawn) [Example 9], for which the IC50 is more than 10000 nM.

With `Cc1sc(C(=O)N[C@@H]2[C@H](N)CCCC2(F)F)cc1-c1cnc2ccccn12` [Example 15, N-[(1R,6R)-6-amino-2,2-difluorocyclohexyl]-4-(imidazo[1,2-a]pyridin-3-yl)-5-methylthiophene-2-carboxamide], the 50% inhibitory concentration (IC50) was more than 10000 nM.

Consider `N[C@@H]1CCCC(F)(F)[C@@H]1NC(=O)c1cc(-c2cnc3cccnn23)c(Cc2ccccc2)s1` [Example 19, N-[(1R,6R)-6-amino-2,2-difluorocyclohexyl]-5-benzyl-4-(imidazo[1,2-b]pyridazin-3-yl)thiophene-2-carboxamide], for which the IC50 was more than 10000 nM.

Another assay concerns the target recombinant MARK3 enzyme (Homo sapiens (Human), UniProt P27448). The assay is described as follows: MARK 3 Assay (HTRF, Cdc25C biotinylated peptide substrate). Type of assay: biochemical. To be noted: MARK3, 10 μM ATP, 1 μM peptide substrate, 2 hours at 25° C. The protocol:
MARK3 activity was assayed in vitro using a Cdc25C biotinylated peptide substrate (Cell Signalling Technologies). The phosphopeptide product was quantitated using a Homogenous Time-Resolved Fluorescence (HTRF) assay system (Park et al., 1999, Anal. Biochem. 269:94-104). The reaction mixture contained 50 mM HEPES/Tris-HCl, pH 7.4; […], 5 mM MgCl2, 0.2 mM NaVO4, 5 mM 3-glycerol phosphate, 0.1% Tween-20, 2 mM dithiothreitol, 0.1% BSA, 10 μM ATP, 1 μM peptide substrate, and 10 nM recombinant MARK3 enzyme (University of Dundee) in a final volume of 12 μL. The buffer additionally contained protease inhibitor cocktail (Roche EDTA-free, 1 tab per 50 ml). The kinase reaction was incubated for 2 hours at 25° C., and then terminated with 3 μl Stop/Detection Buffer (50 mM HEPES, pH 7.0, 16.6 mM EDTA, 0.5M KF, 0.1% Tween-20, 0.1% BSA, 2 μg/ml SLX^ent 665 (CISBIO), and 2 μg/mL Eu^3+ cryptate label antibody (CISBIO)). The reaction was allowed to equilibrate overnight at 0° C., and relative fluorescent units were read on an HTRF enabled plate reader (e.g. TECAN GENios Pro).
Inhibitor compounds were assayed in the reaction described above to determine compound IC50s. Aliquots of compound dissolved in DMSO were added to the reaction wells in a third-log dilution series covering a range of 1 nM to 10 μM. Relative phospho substrate formation, read as HTRF fluorescence units, was measured over the range of compound concentrations and a titration curve generated.
In general terms: Time-resolved FRET reads energy transfer from a long-lived donor to a nearby acceptor.
On to `Cc1sc(C(=O)N[C@@H]2[C@H](N)CCCC2(F)F)cc1-c1cnc2cccnn12` [Example 1, N-[(1R,6R)-6-Amino-2,2-difluorocyclohexyl]-4-(imidazo[1,2-b]pyridazin-3-yl)-5-methylthiophene-2-carboxamide], for which the IC50 worked out at 20 nM.

`N[C@@H]1CCCC(F)(F)[C@@H]1NC(=O)c1cc(-c2cnc3cc(-c4ccc(F)cc4)cnn23)cs1` [Example 8, (1R,2R)-3,3-difluoro-2-[({4-[7-(4-fluorophenyl)imidazo[1,2-b]pyridazin-3-yl]thiophen-2-yl}carbonyl)amino]cyclohex-anaminium trifluoroacetate]: the IC50 turned out to be 0.5 nM.

Take `N[C@H]1CCCC(F)(F)[C@@H]1NC(=O)c1cc(-c2cnc3ccccn23)cs1` [Example 14, N-[(1R,6S)-6-amino-2,2-difluorocyclohexyl]-4-(imidazo[1,2-a]pyridin-3-yl)thiophene-2-carboxamide]: the IC50 was 15 nM.

On to `CCc1sc(C(=O)N[C@@H]2[C@H](N)CCCC2(F)F)cc1-c1cnc2cc(C(F)(F)F)cnn12` [Example 24, N-[(1R,6R)-6-amino-2,2-difluorocyclohexyl]-5-ethyl-4-[7-(trifluoromethyl)imidazo[1,2-b]pyridazin-3-yl]thiophene-2-carboxamide], for which the half-inhibitory concentration (IC50) amounted to 140 nM.

For the molecule `N[C@H]1CCCC(F)(F)[C@@H]1NC(=O)c1nc(-c2cnc3ccccn23)c(Cl)s1` [Example 29, N-[(1R,6S)-6-Amino-2,2-difluorocyclohexyl]-5-chloro-4-(imidazo[1,2-a]pyridin-3-yl)-1,3-thiazole-2-carboxamide], the IC50 is 720 nM.

The IC50 is the point on the concentration scale where inhibition reaches its midpoint.
